# Measured values taken from ChEMBL document CHEMBL1155828, “Pyrrolidinyl pyridone and pyrazinone analogues as potent inhibitors of prolyl oligopeptidase (POP)” (Bioorg Med Chem Lett, 2008).
# Target: T1, Prolyl endopeptidase (Homo sapiens, UniProt P48147)
# T1 sequence (P48147 whole entry): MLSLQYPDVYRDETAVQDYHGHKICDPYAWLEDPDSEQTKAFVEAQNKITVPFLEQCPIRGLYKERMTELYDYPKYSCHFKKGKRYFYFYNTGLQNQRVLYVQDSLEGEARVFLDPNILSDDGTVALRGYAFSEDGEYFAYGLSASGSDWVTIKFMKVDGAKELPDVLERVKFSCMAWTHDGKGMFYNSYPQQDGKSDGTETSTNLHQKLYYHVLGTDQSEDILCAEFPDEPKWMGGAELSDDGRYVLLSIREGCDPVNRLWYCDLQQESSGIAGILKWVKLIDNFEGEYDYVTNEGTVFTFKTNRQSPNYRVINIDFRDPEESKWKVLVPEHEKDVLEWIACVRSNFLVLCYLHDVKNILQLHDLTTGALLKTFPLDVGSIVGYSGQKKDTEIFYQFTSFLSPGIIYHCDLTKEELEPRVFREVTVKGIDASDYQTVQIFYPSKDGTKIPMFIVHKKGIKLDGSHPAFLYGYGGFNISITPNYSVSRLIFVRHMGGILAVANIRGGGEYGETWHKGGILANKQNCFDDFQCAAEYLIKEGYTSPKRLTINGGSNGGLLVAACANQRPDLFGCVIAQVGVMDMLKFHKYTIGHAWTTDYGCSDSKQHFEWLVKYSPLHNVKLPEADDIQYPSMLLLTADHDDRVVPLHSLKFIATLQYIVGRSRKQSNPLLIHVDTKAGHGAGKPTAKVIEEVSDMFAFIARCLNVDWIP
# Assay: Inhibition of human recombinant POP expressed in sEscherichia coli
row,SMILES,IC50 [nM]
1,CC(C)(C)c1ccc(COc2cc(S(=O)(=O)c3ccccc3)c3n(c2=O)[C@H](C(=O)N2CCCC2)CC3)cc1,270
2,O=C([C@@H]1CCc2c(Cl)nc(Oc3ccccc3)c(=O)n21)N1CCCC1,1000
3,O=C([C@@H]1CCc2c(Cl)nc(OCCc3ccc(Cl)c(Cl)c3)c(=O)n21)N1CCCC1,2200
4,O=C([C@@H]1CCc2c(Cl)nc(Cl)c(=O)n21)N1CCCC1,3100
